Experimental data taken from patent publication US6624162B2, “Imidazopyridine compounds as 5-HT4 receptor modulators” (Pfizer Inc., priority 2001, dated 2003).

Biological target: T1, 5-HT4 receptors (Rattus norvegicus, UniProt Q62758)
T1 construct: The remaining inner tube of smooth muscle was known as the TMM; from tissue; host or cells: rat oesophagus tunica muscularis mucosae (TMM), male SD rats (Charles River)
Assay: Functional assay: rat oesophagus TMM relaxation
Conditions: carbachol-contracted rat oesophagus TMM, 1 μM antagonist
Text: More specifically, partial agonist activity can be measured according to the following procedures.
Male SD rats (Charles River) weighing 250-350 g were stunned and then killed by cervical dislocation. The oesophagus was dissected from immediately proximal to the stomach (including piece of stomach to mark distal end) up to the level of the trachea and then placed in fresh Krebs' solution.
The outer skeletal muscle layer was removed in one go by peeling it away from the underlying smooth muscle layer using forceps (stomach to tracheal direction). The remaining inner tube of smooth muscle was known as the TMM. This was trimmed to 2 cm from the original ‘stomach-end’ and the rest discarded.
The TMMs were mounted as whole ‘open’ tubes in longitudinal orientation in 5 ml organ baths filled with warm (32° C.) aerated Krebs. Tissues were placed under an initial tension of 750 mg and allowed to equilibrate for 60 minutes. The tissues were re-tensioned twice at 15 minute intervals during the equilibration period. The pump flow rate was set to 2 ml/min during this time.
Following equilibration, the pump was switched off. The tissues were exposed to 1 μM carbachol and contracted and reached a steady contractile plateau within 15 minutes. Tissues were then subject to 1 μM 5-HT (this was to prime the tissues). The tissues relaxed in response to 5-HT fairly rapidly—within 1 minute. […]

T1 sequence (Q62758 whole entry): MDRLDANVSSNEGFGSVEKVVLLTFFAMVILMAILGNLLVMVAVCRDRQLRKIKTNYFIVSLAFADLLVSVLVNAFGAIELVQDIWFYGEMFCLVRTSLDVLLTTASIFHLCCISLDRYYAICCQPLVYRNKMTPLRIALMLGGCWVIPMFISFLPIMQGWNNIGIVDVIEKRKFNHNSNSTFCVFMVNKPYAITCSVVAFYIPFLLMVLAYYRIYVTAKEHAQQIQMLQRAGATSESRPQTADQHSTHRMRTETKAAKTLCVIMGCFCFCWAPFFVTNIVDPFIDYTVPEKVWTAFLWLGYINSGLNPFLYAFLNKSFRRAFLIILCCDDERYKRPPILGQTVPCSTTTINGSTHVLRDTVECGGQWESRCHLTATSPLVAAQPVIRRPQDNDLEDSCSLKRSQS

SMILES | reversal of 5-HT induced relaxation
O=C(OCCN1CCCCC1)c1c[nH]c2ccccc12 [SB 203,186, 1H-Indole-3-carboxylic acid, 2-(1-piperidinyl)ethyl ester] | reversed 5-HT induced relaxation

System: not given
Assay: not given
Conditions: not given

melting point | SMILES
139 to 145 °C | CCCCN1CCC(CNC(=O)c2ccc(N)n3cc(CC)nc23)CC1
179 °C | CCc1cn2c(N)c(Cl)cc(C(=O)NC3CCN(CCCOC)CC3)c2n1
153 °C | CCc1cn2c(N)c(Cl)cc(C(=O)NCC3CCNCC3)c2n1
172 °C | CCCCN1CCC(CNC(=O)c2ccc(N)n3cc(CCC)nc23)CC1
243 °C | CCCc1cn2c(N)c(Cl)cc(C(=O)NC3CCN(CCCOC)CC3)c2n1.Cl
238 °C | CCCc1cn2c(N)ccc(C(=O)NC3CCN(CCCOC)CC3)c2n1.Cl
168 °C | CCCCN1CCC(CNC(=O)c2cc(Cl)c(N)n3cc(C(C)C)nc23)CC1
138 °C | CCCCN1CCC(CNC(=O)c2ccc(N)n3cc(C(C)C)nc23)CC1
263 °C | CCCCN1CCC(CNC(=O)c2cc(Cl)c(N)n3cc(-c4ccccc4)nc23)CC1.Cl
221 °C | CCCCN1CCC(CNC(=O)c2ccc(N)n3cc(-c4ccccc4)nc23)CC1
113 °C | CCCCN1CCC(CNC(=O)c2ccc(N)n3cc(Cl)nc23)CC1
216 to 219 °C | Cc1cn2c(N)c(Cl)cc(C(=O)NCC3CCN(CC(C)C)CC3)c2n1
234 °C | CCc1cn2c(N)c(Cl)cc(C(=O)NCC3CCN(CCC(C)(C)C)CC3)c2n1
211 °C | CCc1cn2c(N)c(Cl)cc(C(=O)NCC3CCN(CC(C)(C)OC)CC3)c2n1
211 °C | COC(C)(C)CN1CCC(CNC(=O)c2cc(Cl)c(N)n3cc(C)nc23)CC1
188 to 191 °C | CCCCN1CCC(CNC(=O)c2cc(Cl)c(N)n3cc(C)nc23)CC1
167 °C | COCCCN1CCC(CNC(=O)c2cc(Cl)c(N)n3cc(C)nc23)CC1
148 °C | CCCCN1CCC(CNC(=O)c2cc(Cl)c(NC)n3ccnc23)CC1
125 °C | CNc1c(Cl)cc(C(=O)NCC2CCN(CCCOC)CC2)c2nccn12
